For data set [1], the system named is mammalian cells. The note with it: cited from earlier work.
For data set [2], the target named is T1, SARS-CoV-2 Mac1 (Severe acute respiratory syndrome coronavirus 2, UniProt P0DTD1). The note with it: read-out: IC50 Mac1 mono-ARH activity; ref Dasovich et al., 2022; cited from earlier work.
The target in data set [3] is MERS-CoV Mac1 (Middle East respiratory syndrome-related coronavirus, UniProt K9N7C7). Type of data set: binding. As to conditions: read-out: IC50 AS MERS.
The target in data set [4] is SARS-CoV Mac1 (Severe acute respiratory syndrome coronavirus, UniProt P0C6X7). The format is binding. The note with it: read-out: AS assay IC50 SARS-CoV.
The target of data set [5] is T1, SARS-CoV-2 Mac1. As to the kind of experiment: Differential scanning fluorimetry. The format is binding. For orientation: In DSF a fluorescence change marks the thermal transition of the protein.
The test system of data set [6] is Mac1. As to conditions: ref Ni et al., 2021; cited from earlier work.

Chain of MERS-CoV Mac1 (K9N7C7 1110-1276 limits assumed): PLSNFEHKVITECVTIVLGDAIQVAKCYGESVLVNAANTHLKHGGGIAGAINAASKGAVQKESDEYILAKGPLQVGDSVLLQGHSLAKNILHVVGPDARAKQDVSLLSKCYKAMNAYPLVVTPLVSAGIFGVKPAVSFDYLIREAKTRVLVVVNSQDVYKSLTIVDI

Regarding `Cc1nc(Nc2ncc(C(=O)Nc3c(C)cccc3Cl)s2)cc(N2CCN(CCO)CC2)n1` [Dasatinib], the “toxicity to mammalian cells (in words)” value in data set [1] is listed as “toxic to mammalian cells”. Moreover, in data set [2], the IC50 (in general, the midpoint of a concentration-inhibition curve) is approximately 50 µM.

On to `Nc1ncnc2c1ncn2[C@@H]1O[C@H](COP(=O)(O)OP(=O)(O)OC[C@H]2OC(O)[C@H](O)[C@@H]2O)[C@@H](O)[C@H]1O` (stereo partly drawn) [ADP-ribose], for which the values for the IC50 in data set [3] and in data set [4] were 1.25 ± 0.23 µM and 0.24 µM, respectively.

On to `Nc1ncnc2c1ncn2[C@@H]1O[C@H](COP(=O)(O)OP(=O)(O)OP(=O)(O)O)[C@@H](O)[C@H]1O` [ATP], for which, in data set [5], the “thermal shift of Mac1 in DSF (in words)” value is reported as “no effect”.

Turning to `N#C[C@@]1(c2ccc3c(N)ncnn23)O[C@H](CO)[C@@H](O)[C@H]1O` [GS-441524], in data set [6], the “binding to Mac1 (in words)” value was “bound to Mac1”.
